Patent publication US8119681B2, “2-[1-phenyl-5-hydroxy or methoxy-4alpha-methyl-hexahydrocyclopenta [ƒ]indazole-5-YL]ethyl phenyl derivatives as glucocorticoid receptor ligands” (Merck Sharp & Dohme Corp., priority 2006, dated 2012)
Like-named read-outs stand apart in the source and are kept apart here.

Target: T1, human GR (Homo sapiens, UniProt P04150)
T1 sequence (P04150 1-777): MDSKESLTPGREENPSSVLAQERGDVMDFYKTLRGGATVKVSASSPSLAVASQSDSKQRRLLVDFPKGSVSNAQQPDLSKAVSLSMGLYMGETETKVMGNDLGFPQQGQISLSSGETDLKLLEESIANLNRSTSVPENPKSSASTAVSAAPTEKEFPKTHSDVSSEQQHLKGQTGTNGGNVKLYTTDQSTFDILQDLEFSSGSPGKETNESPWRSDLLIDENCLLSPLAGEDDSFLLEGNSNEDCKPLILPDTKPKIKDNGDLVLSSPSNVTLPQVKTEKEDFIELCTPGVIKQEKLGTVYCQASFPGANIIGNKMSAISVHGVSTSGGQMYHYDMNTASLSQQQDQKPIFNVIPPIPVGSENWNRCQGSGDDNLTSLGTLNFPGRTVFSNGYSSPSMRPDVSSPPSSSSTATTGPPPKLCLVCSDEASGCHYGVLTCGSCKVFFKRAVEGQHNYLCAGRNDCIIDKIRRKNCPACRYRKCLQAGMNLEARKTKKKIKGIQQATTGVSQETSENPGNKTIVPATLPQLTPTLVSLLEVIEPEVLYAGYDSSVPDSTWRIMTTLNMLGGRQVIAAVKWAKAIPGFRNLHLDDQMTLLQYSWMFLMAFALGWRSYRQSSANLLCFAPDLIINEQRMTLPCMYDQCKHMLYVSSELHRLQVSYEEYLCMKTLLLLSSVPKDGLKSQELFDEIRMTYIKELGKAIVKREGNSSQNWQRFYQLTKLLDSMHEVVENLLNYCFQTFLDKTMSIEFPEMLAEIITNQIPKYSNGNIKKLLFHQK
Assay: Transrepression Assay (GITAR), TNFα-β-lactamase reporter gene in U937 cells
Type: cell-based
Design: U937 cells contain an endogenous glucocorticoid receptor (GR); endogenous in cells; host or cells: U937 cells stably transfected with the TNF-α promoter/β-lactamase reporter only
Conditions: for EC50: IP = inflection point; for GITAR > GRAMM % SEP: separation of GITAR Emax over GRAMMER Emax; for Emax: U-937
How it was run: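 Reporter readout used CCF2-AM loading for 70–90 min at room temperature after overnight (~18 h, 37 °C) PMA (5 ng/ml final) and LPS (100 ng/ml final) stimulation of compound-treated (30–45 min) TNFα-β-lactamase U937 cells expressing native GR. Activity was normalised to 100 nM dexamethasone repression.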

[1] = Table 1, U937 cells, read-out: Transrepression U937 Cells GITAR IP
[2] = 100 nM dexamethasone = 100% activity, read-out: maximal activity in the transrepression assay
[3] = Table 1, U937 cells, activity repressed by 100 nM dexamethasone = 100%, read-out: Transrepression U937 Cells GITAR Emax (%)
[4] = Table 2, U937 cells, read-out: Transactiviation U937 Cells GITAR IP
[5] = Table 2, U937 cells, activity repressed by 100 nM dexamethasone = 100%, read-out: Transactiviation U937 Cells GITAR Emax (%)

| Structure (SMILES) | EC50 [1] [nM] | GITAR > GRAMM % SEP (Table 1) [%] | Emax [2] [%] | Emax [3] [%] | EC50 [4] [nM] | GITAR > GRAMM % SEP (Table 2) [%] | Emax [5] [%] |
| --- | --- | --- | --- | --- | --- | --- | --- |
| C[C@]12Cc3cnn(-c4ccc(F)cc4)c3C=C1CC[C@@]2(O)CCc1cccc(F)c1CNS(=O)(=O)C1CC1 [Example 88, N-(2-fluoro-6-{2-[(4αS,5R)-1-(4-fluorophenyl)-5-hydroxy-4α-methyl-1,4,4α,5,6,7-hexahydrocyclopenta[f]indazol-5-yl]ethyl}benzyl)cyclopropanesulfonamide] | 90 | 37 | 5 to 100 | 69 | – | – | – |
| CC(CNC(=O)c1ccccc1CC[C@]1(O)CCC2=Cc3c(cnn3-c3ccc(F)cc3)C[C@@]21C)C(F)(F)F (stereo partly drawn) [Example 31, 2-{2-[(4αS,5R)-1-(4-fluorophenyl)-5-hydroxy-4α-methyl-1,4,4α,5,6,7-hexahydrocyclopenta[f]indazol-5-yl]ethyl}-N-(3,3,3-trifluoro-2-methylpropyl)benzamide] | 183 | 39 | 5 to 100 | 48 | – | – | – |
| C[C@]12Cc3cnn(-c4ccc(F)cc4)c3C=C1CC[C@@]2(O)CCc1cccc(F)c1CNS(=O)(=O)C(Cl)Cl [Example 85, 1,1-dichloro-N-(2-fluoro-6-{2-[(4αS,5R)-1-(4-fluorophenyl)-5-hydroxy-4α-methyl-1,4,4α,5,6,7-hexahydrocyclopenta[f]indazol-5-yl]ethyl}benzyl)methanesulfonamide] | 182 | 44 | 5 to 100 | 63 | – | – | – |
| C[C@]12Cc3cnn(-c4ccc(F)cc4)c3C=C1CC[C@@]2(O)CCc1ccc(F)cc1 [Example 46 WO 2004/075840 A2, reference compound] | – | – | – | – | 596 | 44 | 71 |
| C[C@]12Cc3cnn(-c4ccc(F)cc4)c3C=C1CC[C@@]2(O)CCc1ccccc1C(=O)N1CCC1 [Example 40, (4αS,5R)-5-{2-[2-(azetidin-1-ylcarbonyl)phenyl]ethyl}-1-(4-fluorophenyl)-4α-methyl-1,4,4α,5,6,7-hexahydrocyclopenta[f]indazol-5-ol] | 246 | 17 | 5 to 100 | 64 | – | – | – |
| CCNC(=O)c1ccccc1CC[C@]1(O)CCC2=Cc3c(cnn3-c3ccc(F)cc3)C[C@@]21C [Example 2, N-ethyl-2-{2-[(4αS,5R)-1-(4-fluorophenyl)-5-hydroxy-4α-methyl-1,4,4α,5,6,7-hexahydrocyclopenta[f]indazol-5-yl]ethyl}benzamide] | 88 | 14 | 5 to 100 | 65 | – | – | – |
| COc1ccccc1CC[C@]1(O)CCC2=Cc3c(cnn3-c3ccc(F)cc3)C[C@@]21C [Example 58 WO 2004/075840 A2, reference compound] | – | – | – | – | 642 | 14 | 42 |
| COC(=O)C1(NC(=O)c2ccccc2CC[C@]2(O)CCC3=Cc4c(cnn4-c4ccc(F)cc4)C[C@@]32C)CC1 [Example 26, methyl 1-[(2-{2-[(4αS,5R)-1-(4-fluorophenyl)-5-hydroxy-4α-methyl-1,4,4α,5,6,7-hexahydrocyclopenta[f]indazol-5-yl]ethyl}benzoyl)amino]cyclopropanecarboxylate] | 123 | 15 | 5 to 100 | 39 | – | – | – |
| CC(C)(C)CNC(=O)c1c(F)cccc1CC[C@]1(O)CCC2=Cc3c(cnn3-c3ccc(F)cc3)C[C@@]21C [Example 55, N-(2,2-dimethylpropyl)-2-fluoro-6-{2-[(4αS,5R)-1-(4-fluorophenyl)-5-hydroxy-4α-methyl-1,4,4α,5,6,7-hexahydrocyclopenta[f]indazol-5-yl]ethyl}benzamide] | 187 | 53 | 5 to 100 | 76 | – | – | – |
| C[C@]12Cc3cnn(-c4ccccc4)c3C=C1CC[C@@]2(O)CCc1ccccc1C(N)=O [Example 43, 2-{2-[(4αS,5R)-5-hydroxy-4α-methyl-1-phenyl-1,4,4α,5,6,7-hexahydrocyclopenta[f]indazol-5-yl]ethyl}benzamide] | 98 | 9 | 5 to 100 | 68 | – | – | – |
| C[C@]12Cc3cnn(-c4ccc(F)cc4)c3C=C1CC[C@@]2(O)CCc1ccccc1C(=O)N1CCCCC1 [Example 46, (4αS,5R)-1-(4-fluorophenyl)-4α-methyl-5-{2-[2-(piperidin-1-ylcarbonyl)phenyl]ethyl}-1,4,4α,5,6,7-hexahydrocyclopenta[f]indazol-5-ol] | 248 | 17 | 5 to 100 | 70 | – | – | – |
| C[C@]12Cc3cnn(-c4ccc(Cl)cc4)c3C=C1CC[C@@]2(O)CCc1cccc(F)c1C(N)=O [Example 185, 2-{2-[(4αS,5R)-1-(4-chlorophenyl)-5-hydroxy-4α-methyl-1,4,4α,5,6,7-hexahydrocyclopenta[f]indazol-5-yl]ethyl}-6-fluorobenzamide] | 59 | 41 | 5 to 100 | 80 | – | – | – |
| C[C@]12Cc3cnn(-c4ccc(F)cc4)c3C=C1CC[C@@]2(O)CCc1ccc(F)cc1C(N)=O [Example 159, 5-fluoro-2-{2-[(4αS,5R)-1-(4-fluorophenyl)-5-hydroxy-4α-methyl-1,4,4α,5,6,7-hexahydrocyclopenta[f]indazol-5-yl]ethyl}benzamide] | 125 | 36 | 5 to 100 | 73 | – | – | – |

More lines, now with the values ahead:

| EC50 [1] [nM] | GITAR > GRAMM % SEP (Table 1) [%] | Emax [2] [%] | Emax [3] [%] | EC50 [4] [nM] | GITAR > GRAMM % SEP (Table 2) [%] | Emax [5] [%] | Structure (SMILES) |
| --- | --- | --- | --- | --- | --- | --- | --- |
| 277 | 36 | 5 to 100 | 49 | – | – | – | C=C(C)CNC(=O)c1ccccc1CC[C@]1(O)CCC2=Cc3c(cnn3-c3ccc(F)cc3)C[C@@]21C [Example 32, 2-{2-[(4αS,5R)-1-(4-fluorophenyl)-5-hydroxy-4α-methyl-1,4,4α,5,6,7-hexahydrocyclopenta[f]indazol-5-yl]ethyl}-N-(2-methylprop-2-en-1-yl)benzamide] |
| 207 | 33 | 5 to 100 | 76 | – | – | – | C[C@]12Cc3cnn(-c4ccc(F)cc4)c3C=C1CC[C@@]2(O)CCc1cccc(F)c1[C@H](N)C(F)(F)F [Example 151, (4αS,5R)-5-(2-{2-[(1S)-1-amino-2,2,2-trifluoroethyl]-3-fluorophenyl}ethyl)-1-(4-fluorophenyl)-4α-methyl-1,4,4α,5,6,7-hexahydrocyclopenta[f]indazol-5-ol] |
| 212 | 17 | 5 to 100 | 72 | – | – | – | CN(C)S(=O)(=O)c1ccccc1CC[C@]1(O)CCC2=Cc3c(cnn3-c3ccc(F)cc3)C[C@@]21C [Example 138, 2-{2-[(4αS,5R)-1-(4-fluorophenyl)-5-hydroxy-4α-methyl-1,4,4α,5,6,7-hexahydrocyclopenta[f]indazol-5-yl]ethyl}-N,N-dimethylbenzenesulfonamide] |
| 299 | 23 | 5 to 100 | 70 | – | – | – | C[C@]12Cc3cnn(-c4ccc(F)cc4)c3C=C1CC[C@@]2(O)CCc1ccc(F)cc1C#N [Example 163, 5-fluoro-2-{2-[(4αS,5R)-1-(4-fluorophenyl)-5-hydroxy-4α-methyl-1,4,4α,5,6,7-hexahydrocyclopenta[f]indazol-5-yl]ethyl}benzonitrile] |
| 152 | 44 | 5 to 100 | 58 | – | – | – | CC(CNC(=O)c1c(F)cccc1CC[C@]1(O)CCC2=Cc3c(cnn3-c3ccc(F)cc3)C[C@@]21C)C(F)(F)F (stereo partly drawn) [Example 38, 2-fluoro-6-{2-[(4αS,5R)-1-(4-fluorophenyl)-5-hydroxy-4α-methyl-1,4,4α,5,6,7-hexahydrocyclopenta[f]indazol-5-yl]ethyl}-N-(3,3,3-trifluoro-2-methylpropyl)benzamide] |
| 207 | 39 | 5 to 100 | 71 | – | – | – | CN(C)S(=O)(=O)Nc1c(F)cccc1CC[C@]1(O)CCC2=Cc3c(cnn3-c3ccc(F)cc3)C[C@@]21C [Example 113, N′-(2-fluoro-6-{2-[(4αS,5R)-1-(4-fluorophenyl)-5-hydroxy-4α-methyl-1,4,4α,5,6,7-hexahydrocyclopenta[f]indazol-5-yl]ethyl}phenyl)-N,N-dimethylsulfamide] |
